Data: publication PMC8333425, “Discovery of a dual Ras and ARF6 inhibitor from a GPCR endocytosis screen” (Nature Communications, 2021)
“And” between values parts separate entries of the source, which are not always exact repeats. Equal entries are not always repeated. “Also recorded” adds a separate entry of the source.

Experiments:
BRAF = assay: Western blot of ERK1/2 phosphorylation induced by BRAF (BRAF-WT / BRAF-V600E); assay type: cell-based, human
Protocol: HEK293SL cells (10^5 cells per well) were seeded in a poly-L-lysine-coated six-well plate and transiently transfected with 3 μg Flag-AT1R, HA-B2R or HA-β2AR and/or 500 ng Flag-MEK1-WT, Flag-MEK1-DD, Flag-BRAF-WT, Flag-BRAF-V600E, Flag-K-Ras-WT, Flag-K-Ras-G12V, HA-ARF6-WT, or HA-ARF6-T27N. Gαq/11 KO and βarr1/2 KO cells were seeded onto 100 mm dishes at a density of 10^6 cells per dish. Next day, cells were transfected with 3 μg AT1R alone or along with 500 ng of β-arrestin2 using PEI. After 18 h of transfection, cells were detached and re-seeded onto poly-L-lysine coated 12-well plates (~1.5–2 × 10^5cells/well) for subsequent experiments. Forty-eight hours post transfection, in a 37 °C water bath, cells were serum-starved for 30 min, pretreated with DMSO (0.1%) or compound 21/Rasarfin (50 µM or at indicated concentrations) for 30 min, then stimulated or not with the indicated ligand [AngII (1 µM), BK (1 µM), Iso (10 µM) or EGF (100 ng/ml)] at indicated times. Cells were put on ice, washed with PBS and solubilized in 2x laemmli buffer (250 mM Tris–HCl pH 6.8, 2% SDS (w/v), 10% glycerol (v/v), 0.01% bromophenol blue (w/v) and 5% β-mercaptoethanol (v/v)) by heating at 65 °C for 15 min. Lysates were resolved on 10 or 14% SDS-PAGE, transferred to nitrocellulose membranes and immunoblotted for p-ERK1/2, ERK1/2, p-Akt, Akt, HA, Myc, β-actin or FLAG. ImageLab 5.2 software was used to quantify the digital blots as fold of the phosphorylated protein over total protein, which were then normalized as indicated in the figure legends. Uncropped immunoblots are provided in the Source Data file.

A549 cells = assay: Cell proliferation assay (IncuCyte confluence), A549; assay type: cell-based, human; conditions: for cell confluence (proliferation) / proliferation (confluence): listed as Rasarfin
Protocol: Cell proliferation was measured by a label-free, non-invasive cellular confluence assay using IncuCyte Live-Cell Imaging Systems (Essen Bioscience, Ann Arbor, MI, USA). MDA-MB-231 breast cancer and A549 lung carcinomas cells (1500 cells in 150 μl/well) were seeded overnight on a clear 96-well plate. Twenty-four hours later, the cells were treated with 0.1% DMSO, or different concentrations of Rasarfin (as indicated), or 10 µM of 21.4 or 21.8 for 96 h total. The plate was placed in an XL-3 incubation chamber maintained at 37 °C and the cells were photographed using a ×4 objective, every 3 h for 4 days. Cell confluence was calculated using IncuCyte S3 software (2019A) and cell proliferation was expressed as an increase in the percentage of confluence. Experiments were done in triplicate and repeated three times.

SMILES: CC(C)C(=O)N1CCN(c2ccc(NC(=O)c3cc4ccccc4o3)cc2Cl)CC1 [Compound 21]
- ERK1/2 activation induced by overexpression of BRAF-V600E (BRAF; 50 μM): nor did it block ERK1/2 activation
- ERK1/2 phosphorylation relative to mock (S_Fig.4d) (BRAF; Flag-BRAF-V600E, listed as Comp 21): 3.464 and 4.631 and 3.5221 and 2.836
- ERK1/2 phosphorylation relative to mock (S_Fig.4d) (BRAF; Flag-BRAF-WT, listed as Comp 21): 1 and 1.273 and 1.416
- ERK1/2 phosphorylation relative to mock (S_Fig.4d) (BRAF; mock): 1
- cell confluence (proliferation) (A549 cells; 0.5μM, 18 hr): 9.332 and 9.3043 and 10.3515
- proliferation (confluence) (A549 cells; 0.5μM, 18 hr): 24.4895 and 24.566 and 18.9209
- cell confluence (proliferation) (A549 cells; 0.5μM, 21 hr): 10.4726 and 10.4517 and 11.0087
- proliferation (confluence) (A549 cells; 0.5μM, 21 hr): 27.1666 and 26.6886 and 21.2647
- cell confluence (proliferation) (A549 cells; 0.5μM, 24 hr): 10.2389 and 10.6946 and 11.5243
- proliferation (confluence) (A549 cells; 0.5μM, 24 hr): 32.6256 and 30.048 and 24.569
- cell confluence (proliferation) (A549 cells; 0.5μM, 27 hr): 10.805 and 11.0634 and 12.4799
- proliferation (confluence) (A549 cells; 0.5μM, 27 hr): 37.2681 and 34.654 and 21.9145
- cell confluence (proliferation) (A549 cells; 0.5μM, 30 hr): 11.9152 and 12.485 and 12.9764
- proliferation (confluence) (A549 cells; 0.5μM, 30 hr): 41.4109 and 39.7044 and 23.7331
- cell confluence (proliferation) (A549 cells; 0.5μM, 33 hr): 12.3634 and 12.541 and 13.8499
- proliferation (confluence) (A549 cells; 0.5μM, 33 hr): 46.0502 and 43.4249 and 28.4554
- proliferation (confluence) (A549 cells; 0.5μM, 36 hr): 51.8492 and 49.6782 and 33.7864
- proliferation (confluence) (A549 cells; 0.5μM, 39 hr): 59.4007 and 56.0507
- cell confluence (proliferation) (A549 cells; 1μM, 18 hr): 8.679 and 9.302 and 9.424
- proliferation (confluence) (A549 cells; 1μM, 18 hr): 19.1081 and 18.3715 and 26.7974
- cell confluence (proliferation) (A549 cells; 1μM, 21 hr): 9.1 and 10.4023 and 9.667
- proliferation (confluence) (A549 cells; 1μM, 21 hr): 21.9794 and 20.7173 and 31.1317
- cell confluence (proliferation) (A549 cells; 1μM, 24 hr): 9.619 and 10.4616 and 10.6323
- proliferation (confluence) (A549 cells; 1μM, 24 hr): 24.7962 and 23.1147 and 35.367
- cell confluence (proliferation) (A549 cells; 1μM, 27 hr): 10.2207 and 11.0837 and 11.4063
- proliferation (confluence) (A549 cells; 1μM, 27 hr): 28.2759 and 21.7311 and 40.5461
- cell confluence (proliferation) (A549 cells; 1μM, 30 hr): 12.7027 and 12.0976 and 12.1684
- proliferation (confluence) (A549 cells; 1μM, 30 hr): 31.8721 and 23.9788 and 46.1337
- cell confluence (proliferation) (A549 cells; 1μM, 33 hr): 12.8101 and 12.4309 and 12.7886
- proliferation (confluence) (A549 cells; 1μM, 33 hr): 35.7112 and 29.1451 and 51.7711
- cell confluence (proliferation) (A549 cells; 1μM, 36 hr): 13.5305
- proliferation (confluence) (A549 cells; 1μM, 36 hr): 39.6717 and 33.6517 and 60.1281
- proliferation (confluence) (A549 cells; 1μM, 39 hr): 47.4848 and 40.2179
- cell confluence (proliferation) (A549 cells; 2μM, 18 hr): 9.332 and 13.0386 and 10.4059
- proliferation (confluence) (A549 cells; 2μM, 18 hr): 23.9116 and 20.6158 and 17.6553
- cell confluence (proliferation) (A549 cells; 2μM, 21 hr): 10.4726 and 14.2716 and 10.9627
- proliferation (confluence) (A549 cells; 2μM, 21 hr): 27.3499 and 22.7836 and 20.9361
- cell confluence (proliferation) (A549 cells; 2μM, 24 hr): 10.2389 and 15.0053 and 11.5919
- proliferation (confluence) (A549 cells; 2μM, 24 hr): 32.3505 and 25.0274 and 22.3969
- cell confluence (proliferation) (A549 cells; 2μM, 27 hr): 10.805 and 15.8245 and 11.5779
- proliferation (confluence) (A549 cells; 2μM, 27 hr): 36.576 and 29.0777 and 20.6023
- cell confluence (proliferation) (A549 cells; 2μM, 30 hr): 11.9152 and 18.2698 and 12.1995
- proliferation (confluence) (A549 cells; 2μM, 30 hr): 40.8806 and 32.6797 and 23.0649
- cell confluence (proliferation) (A549 cells; 2μM, 33 hr): 12.3634 and 18.789 and 13.0531
- proliferation (confluence) (A549 cells; 2μM, 33 hr): 45.6439 and 35.4748 and 28.9537
- cell confluence (proliferation) (A549 cells; 2μM, 36 hr): 12.4389 and 19.3831 and 13.6426
- proliferation (confluence) (A549 cells; 2μM, 36 hr): 52.1825 and 39.835 and 32.0484
- proliferation (confluence) (A549 cells; 2μM, 39 hr): 61.5258 and 48.4257 and 38.4343
- cell confluence (proliferation) (A549 cells; 5μM, 18 hr): 10.0859 and 8.906 and 10.6663
- proliferation (confluence) (A549 cells; 5μM, 18 hr): 17.9959 and 26.9316 and 16.8915
- cell confluence (proliferation) (A549 cells; 5μM, 21 hr): 10.2266 and 10.3015 and 11.0904
- proliferation (confluence) (A549 cells; 5μM, 21 hr): 19.5572 and 26.3286 and 18.8493
- cell confluence (proliferation) (A549 cells; 5μM, 24 hr): 11.4115 and 9.856 and 11.3241
- proliferation (confluence) (A549 cells; 5μM, 24 hr): 21.409 and 27.1851 and 17.4154
- cell confluence (proliferation) (A549 cells; 5μM, 27 hr): 11.7245 and 10.4475 and 12.7275
- proliferation (confluence) (A549 cells; 5μM, 27 hr): 22.045 and 28.0966 and 15.1402
- cell confluence (proliferation) (A549 cells; 5μM, 30 hr): 12.7699 and 11.1958 and 12.4012
- cell confluence (proliferation) (A549 cells; 5μM, 33 hr): 12.6309 and 11.193 and 12.7637
- proliferation (confluence) (A549 cells; 5μM, 33 hr): 25.4457 and 25.9951 and 18.0713
- cell confluence (proliferation) (A549 cells; 5μM, 36 hr): 13.1014 and 11.8184 and 13.4133
- proliferation (confluence) (A549 cells; 5μM, 36 hr): 26.9015 and 24.9434 and 20.5372
- proliferation (confluence) (A549 cells; 5μM, 39 hr): 29.6606 and 26.9243 and 22.5988
- cell confluence (proliferation) (A549 cells; 10μM, 18 hr): 8.409 and 7.2062 and 9.084
- proliferation (confluence) (A549 cells; 10μM, 18 hr): 10.5387 and 14.905 and 7.973
- cell confluence (proliferation) (A549 cells; 10μM, 21 hr): 8.837 and 8.143 and 9.362
- proliferation (confluence) (A549 cells; 10μM, 21 hr): 10.701 and 14.8102 and 7.904
- cell confluence (proliferation) (A549 cells; 10μM, 24 hr): 9.479 and 8.1046 and 9.485
- proliferation (confluence) (A549 cells; 10μM, 24 hr): 11.1918 and 15.0497 and 7.616
- cell confluence (proliferation) (A549 cells; 10μM, 27 hr): 9.816 and 8.066 and 10.344
- cell confluence (proliferation) (A549 cells; 10μM, 30 hr): 10.3507 and 8.537 and 10.5983
- cell confluence (proliferation) (A549 cells; 10μM, 33 hr): 10.1924 and 8.993 and 10.9238
- cell confluence (proliferation) (A549 cells; 10μM, 36 hr): 10.249 and 9.152 and 11.0645
- A549 cell growth (confluency) (A549 cells; 5 and 10 µM of Rasarfin): efficiently blocks proliferation; also recorded: efficient A549 cell growth inhibition
